Assay results published in patent US8759390B2, “Chromene modulators of chemokine receptor activity” (Bristol-Myers Squibb Company, priority 2008, dated 2014).
Structures can show the parent of a compound that is named as a salt.

Target: T1, CCR2 (Homo sapiens, UniProt P41597)
T1 construct: THP-1 human monocytic leukemic cell line, which expresses endogenous CCR2; endogenous in cells; host or cells: THP-1 human monocytic leukemia cells, or human PBMC / human monocytes
T1 sequence (P41597 1-360 isoform P41597-2): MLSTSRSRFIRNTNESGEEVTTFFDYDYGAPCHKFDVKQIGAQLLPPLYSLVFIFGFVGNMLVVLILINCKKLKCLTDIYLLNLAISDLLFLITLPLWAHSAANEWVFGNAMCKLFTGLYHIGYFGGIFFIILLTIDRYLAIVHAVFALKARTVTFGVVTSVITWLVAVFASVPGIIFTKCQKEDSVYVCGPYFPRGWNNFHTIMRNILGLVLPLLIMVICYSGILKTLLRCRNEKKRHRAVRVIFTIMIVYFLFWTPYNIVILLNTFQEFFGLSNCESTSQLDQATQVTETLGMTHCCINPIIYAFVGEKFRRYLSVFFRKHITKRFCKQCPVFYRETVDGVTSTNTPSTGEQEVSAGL
Test: CCR2 binding (125I-human MCP-1 competition on human PBMC / THP-1 cells)
Settings: n = 1 unless otherwise noted; tested in one of the assays described
Description: Antagonism of MCP-1 Binding to Human PBMC
Millipore filter plates (#MABVN1250) are treated with 100 μl of binding buffer (0.5% bovine serum albumin, 20 mM HEPES buffer and 5 mM magnesium chloride in RPMI 1640 media) for thirty minutes at room temperature. To measure binding, 50 μl of binding buffer, with or without a known concentration compound, is combined with 50 μl of ^125-I labeled human MCP-1 (to give a final concentration of […] radioligand) and 50 μl of binding buffer containing 5×10^5 cells. Cells used for such binding assays can include human peripheral blood mononuclear cells isolated by Ficoll-Hypaque gradient centrifugation, human monocytes (Weiner et al., J. Immunol. Methods. 1980, 36, 89), or the THP-1 cell line which expresses the endogenous receptor. The mixture of compound, cells and radioligand are incubated at room temperature for thirty minutes. Plates are placed onto a vacuum manifold, vacuum applied, and the plates washed three times with binding buffer containing 0.5M NaCl. The plastic skirt is removed from the plate, the plate allowed to air dry, the wells punched out and counted. The percent inhibition of binding is calculated using the total counts obtained in the absence of any competing compound and the background binding determined by addition of 100 nM MCP-1 in place of the test compound.
THP-1 Monocytic Cell Binding: Whole Cell-Based Assay
The human CCR2 binding assay was also established with the THP-1 human monocytic leukemic cell line, which expresses endogenous CCR2, using ^125I-human MCP-1 as the tracer ligand. Radioligand competition binding assays were used for assessment of binding affinity of test compounds to the CCR2 receptor. For radioligand competition studies, 100 μl containing 2.5×10^5 THP-1 cells/well (in assay buffer containing 50 mM HEPES, pH7.4, 5mM MgCl2, 1 mM CaCl2 and 0.5% BSA) were added to 96-well assay plates containing the test compounds in 3-fold serial dilution, with final concentrations ranging from 5 μM to […]. Subsequently, 50 μl ^125I-MCP-1 radioligand at a final concentration of 0.2 nM in assay buffer were added to the reaction. After a 90 minute incubation period at room temperature, the binding reaction was terminated by harvesting on GF/B filter plates (PerkinElmer Cat. No. 6005177) followed by washing with ice-cold wash buffer (50 mM HEPES, pH 7.4, 0.1% BSA, 0.5 M NaCl) to remove unbound ligand. After washing, the plate was dried for 45 minutes at 60° C. followed by addition of 40 μl MicroScint 20 scintillation fluid, sealed and analyzed by the Packard TopCount reader. Non-specific binding was determined in the presence of 10 μM (a molar excess of […]) of an in-house CCR2 small molecule antagonist (CCR2 IC50=2 nM). Specific binding of ^125I-MCP-1 was calculated as the difference between total and non-specific binding. The competition data was plotted as a percentage inhibition of radioligand specific bound in the absence of test compound (percent of total signal). After correcting for non-specific binding, IC50 values were determined The IC50 is defined as the concentration of test compound required to reduce ^125I-MCP-1 specific binding by 50% and was calculated using the four parameter logistic equation to fit the normalized data.

Ki	SMILES
2000 nM	O=C(O)C1=Cc2ccccc2OC1c1cccc(Cl)c1 (racemic) [Example 1, 2-(3-chlorophenyl)-2H-chromene-3-carboxylic acid]
75 nM	O=C(O)C1=Cc2ccccc2OC1c1ccc(Cl)c(C(F)(F)F)c1 (racemic) [Example 2-1, 2-(4-chloro-3-(trifluoromethyl)phenyl)-2H-chromene-3-carboxylic acid]
950 nM	O=C(O)C1=Cc2ccccc2OC1c1ccc(Cl)cc1 (racemic) [Example 2-2, 2-(4-chlorophenyl)-2H-chromene-3-carboxylic acid]
5300 nM	COc1ccc(C2Oc3ccccc3C=C2C(=O)O)cc1 (racemic) [Example 2-3, 2-(4-methoxyphenyl)-2H-chromene-3-carboxylic acid]
4500 nM	O=C(O)C1=Cc2ccccc2OC1c1cc(Cl)cc(Cl)c1 (racemic) [Example 2-4, 2-(3,5-dichlorophenyl)-2H-chromene-3-carboxylic acid]
1100 nM	O=C(O)C1=Cc2ccccc2OC1c1ccc2c(c1)OCO2 (racemic) [Example 3, 2-(benzo[d][1,3]dioxol-5-yl)-2H-chromene-3-carboxylic acid]
220 nM	CC1(c2ccc(Cl)c(Cl)c2)Oc2ccccc2C=C1C(=O)O (racemic) [Example 4-1, 2-(3,4-dichlorophenyl)-2-methyl-2H-chromene-3-carboxylic acid]
1200 nM	CCC1(c2ccc(Cl)c(Cl)c2)Oc2ccccc2C=C1C(=O)O (racemic) [Example 4-2, 2-(3,4-dichlorophenyl)-2-ethyl-2H-chromene-3-carboxylic acid]
140 nM	O=C(O)C1=Cc2ccccc2OC1c1ccc(Cl)c(Cl)c1 (racemic) [Example 5-1, 2-(3,4-dichlorophenyl)-2H-chromene-3-carboxylic acid]
1900 nM	O=C(O)C1=Cc2ccccc2OC1c1ccc(Cl)c2ccccc12 (racemic) [Example 5-2, 2-(4-chloronaphthalen-1-yl)-2H-chromene-3-carboxylic acid]
1800 nM	O=C(O)C1=Cc2ccccc2OC1c1ccncc1 (racemic) [Example 5-3, 2-(pyridin-4-yl)-2H-chromene-3-carboxylic acid trifluoroacetic acid salt]
1800 nM	O=C(O)C1=Cc2ccccc2OC1c1ccc2ccccc2c1 (racemic) [Example 5-4, 2-(naphthalen-2-yl)-2H-chromene-3-carboxylic acid]
1700 nM	O=C(O)C1=Cc2ccccc2OC1c1cccc2ccccc12 (racemic) [Example 5-5, 2-(naphthalen-1-yl)-2H-chromene-3-carboxylic acid]
5700 nM	O=C(O)C1=Cc2ccccc2OC1c1cccc(F)c1 (racemic) [Example 5-6, 2-(3-fluorophenyl)-2H-chromene-3-carboxylic acid]
290 nM	O=C(O)C1=Cc2ccccc2OC1c1ccc(Cl)c(F)c1 (racemic) [Example 5-7, 2-(3-fluoro-4-chlorophenyl)-2H-chromene-3-carboxylic acid]
560 nM	O=C(O)C1=Cc2ccccc2OC1c1ccc(F)c(Cl)c1 (racemic) [Example 5-8, 2-(3-chloro-4-fluorophenyl)-2H-chromene-3-carboxylic acid]
1600 nM	O=C(O)C1=Cc2ccccc2OC1c1cccc(C(F)(F)F)c1 (racemic) [Example 5-9, 2-(3-trifluoromethylphenyl)-2H-chromene-3-carboxylic acid]
920 nM	O=C(O)C1=Cc2ccccc2OC1c1ccc(C(F)(F)F)cc1 (racemic) [Example 5-10, 2-(4-trifluoromethylphenyl)-2H-chromene-3-carboxylic acid]
8600 nM	O=C(O)C1=Cc2ccccc2OC1c1ccc(F)c(F)c1 (racemic) [Example 5-11, 2-(3,4-difluorophenyl)-2H-chromene-3-carboxylic acid]

Ki	SMILES
2800 nM	O=C(O)C1=Cc2ccccc2OC1c1cccc([N+](=O)[O-])c1 (racemic) [Example 5-12, 2-(3-nitrophenyl)-2H-chromene-3-carboxylic acid]
230 nM	O=C(O)C1=Cc2ccccc2OC1c1ccc(Cl)c([N+](=O)[O-])c1 (racemic) [Example 5-13, 2-(3-nitro-4-chlorophenyl)-2H-chromene-3-carboxylic acid]
160 nM	Cc1cc(C2Oc3ccccc3C=C2C(=O)O)ccc1Cl (racemic) [Example 5-14, 2-(3-methyl-4-chlorophenyl)-2H-chromene-3-carboxylic acid]
430 nM	O=C(O)C1=Cc2ccccc2OC1c1ccc(Br)cc1 (racemic) [Example 5-15, 2-(4-bromophenyl)-2H-chromene-3-carboxylic acid]
1700 nM	O=C(O)C1=Cc2ccccc2OC1c1cccc(Br)c1 (racemic) [Example 5-16, 2-(3-bromophenyl)-2H-chromene-3-carboxylic acid]
85 nM	O=C(O)C1=Cc2ccccc2OC1c1ccc(Br)c(Br)c1 (racemic) [Example 5-17, 2-(3,4-dibromophenyl)-2H-chromene-3-carboxylic acid]
720 nM	O=C(O)C1=Cc2ccccc2OC1c1ccc(C(F)(F)F)c(F)c1 (racemic) [Example 5-18, 2-(3-fluoro-4-trifluoromethylphenyl)-2H-chromene-3-carboxylic acid]
4500 nM	Cc1ccc(C2Oc3ccccc3C=C2C(=O)O)cc1 (racemic) [Example 5-19, 2-(4-methylphenyl)-2H-chromene-3-carboxylic acid]
4200 nM	Cc1cccc(C2Oc3ccccc3C=C2C(=O)O)c1 (racemic) [Example 5-20, 2-(3-methylphenyl)-2H-chromene-3-carboxylic acid]
1400 nM	O=C(O)C1=Cc2ccccc2OC1c1ccccn1 (racemic) [Example 5-21, 2-(pyridin-2-yl)-2H-chromene-3-carboxylic acid]
2100 nM	O=C(O)C1=Cc2ccccc2OC1c1ccc2ccccc2n1 (racemic) [Example 5-22, 2-(quinolin-2-yl)-2H-chromene-3-carboxylic acid]
4300 nM	O=C(O)C1=Cc2ccccc2OC1c1cnc2ccccc2c1 (racemic) [Example 5-23, 2-(quinolin-3-yl)-2H-chromene-3-carboxylic acid]
1100 nM	O=C(O)C1=Cc2ccccc2OC1c1ccc(F)c(C(F)(F)F)c1 (racemic) [Example 5-24, 2-(3-trifluoromethyl-4-fluoro-phenyl)-2H-chromene-3-carboxylic acid]
8300 nM	O=C(O)C1=Cc2ccccc2OC1c1cccc(C(F)(F)F)n1 (racemic) [Example 5-25, 2-(6-trifluoromethyl-pyridin-2-yl)-2H-chromene-3-carboxylic acid]
2600 nM	O=C(O)C1=Cc2ccccc2OC1c1cccc(Cl)c1Cl (racemic) [Example 5-26, 2-(2,3-dichlorophenyl)-2H-chromene-3-carboxylic acid]
2900 nM	COc1cc(C2Oc3ccccc3C=C2C(=O)O)ccc1Cl (racemic) [Example 7-1, 2-(3-methoxy-4-chlorophenyl)-2H-chromene-3-carboxylic acid]
4500 nM	O=C(O)C1=Cc2ccccc2OC1c1ccc(Cl)nc1 (racemic) [Example 7-2, 2-(6-chloropyridin-3-yl)-2H-chromene-3-carboxylic acid]
570 nM	O=C(O)C1=Cc2ccccc2OC1c1cnc(Cl)c(Cl)c1 (racemic) [Example 7-3, 2-(5,6-dichloropyridin-3-yl)-2H-chromene-3-carboxylic acid]
